Results reported in patent US20120252729A1, “PTH-CONTAINING THERAPEUTIC/PROPHYLACTIC AGENT FOR OSTEOPOROSIS, CHARACTERIZED IN THAT PTH IS ADMINISTERED ONCE A WEEK IN A UNIT DOSE OF 100 TO 200 UNITS” (ASAHI KASEI PHARMA CORPORATION, priority 2009, published 2012).

Key:
[1] = system: patients diagnosed with primary osteoporosis; assay: Working Example 1: lumbar spine bone mineral density by DXA, teriparatide acetate 5 or 100 units once a week plus calcium agent; format: in vivo, human; settings: mean ± SD
Procedure: Both the 5 and 100 unit groups were administered two tablets of a calcium agent (containing 500 mg of precipitated calcium carbonate [200 mg as calcium] per tablet) once a day.
The osteoporosis patients were classified as condition shown in Table 1 based on the bone fracture risk factors present, as in Non-patent Reference 13, and compared. High-risk patients were defined as having all three factors involving age, prevalent vertebral fractures, and bone density or bone atrophy; low-risk patients were defined as other than the above.

[2] = in vivo
Procedure: The serum calcium was measured at the start, after 12 weeks, after 24 weeks, after 48 weeks, and after 72 weeks. Serum calcium standard value: 8.4 to 10.4 mg/dL. The standard concomitant drug (610 mg of calcium, 400 IU of vitamin D3, and 30 mg of magnesium) was taken once a day after dinner from the time of consent to the end of the trial.

[3] = system: high-risk patients diagnosed with primary osteoporosis; assay: Working Example 2: bone density of lumbar spine and femur by DXA; format: in vivo, human; settings: 200 units weekly; for Change in bone density (%), lumbar spine / Change in bone density (%), neck of femur / Change in bone density (%), proximal femur: patients taking glucocorticoid
Procedure: For the bone density of the femur, only the left side of the proximal part of the femur, rotated 20°, was measured at the start and every 24 weeks thereafter using dual-energy x-ray absorptiometry (DXA).

[4] = history of calcium L-aspartate, 24 W
[5] = history of calcium L-aspartate, 48 W
[6] = history of calcium L-aspartate, 72 W
[7] = history of calcium lactate, 24 W
[8] = history of calcium lactate, 48 W
[9] = history of calcium lactate, 72 W
[10] = history of raloxifene hydrochloride, 24 W
[11] = history of raloxifene hydrochloride, 48 W
[12] = history of raloxifene hydrochloride, 72 W
[13] = mild impairment (≧50-<80), after 24 W
[14] = mild impairment (≧50-<80), after 48 W
[15] = mild impairment (≧50-<80), final
[16] = moderate impairment (<50), after 24 W
[17] = moderate impairment (<50), after 48 W
[18] = moderate impairment (<50), after 72 W
[19] = moderate impairment (<50), final

Substance: teriparatide acetate
- Lumbar spine bone mineral density (% change) ([1]; high-risk patients, 5 units once a week, after 26 W): −0.9 ± 4.4%
- Lumbar spine bone mineral density (% change) ([1]; high-risk patients, 5 units once a week, after 52 W): −0.6 ± 4.1%
- Lumbar spine bone mineral density (% change) ([1]; high-risk patients, 5 units once a week, after 78 W): 0.4 ± 4.1%
- Lumbar spine bone mineral density (% change) ([1]; high-risk patients, 5 units once a week, after 104 W): 0.4 ± 4.0%
- Lumbar spine bone mineral density (% change) ([1]; high-risk patients, 5 units once a week, final check): −0.1 ± 4.8%
- Lumbar spine bone mineral density (% change) ([1]; high-risk patients, 100 units once a week, after 26 W): 3.3 ± 4.5 %
- Lumbar spine bone mineral density (% change) ([1]; high-risk patients, 100 units once a week, after 52 W): 4.3 ± 4.5 %
- Lumbar spine bone mineral density (% change) ([1]; high-risk patients, 100 units once a week, after 78 W): 4.0 ± 4.5 %
- Lumbar spine bone mineral density (% change) ([1]; high-risk patients, 100 units once a week, after 104 W): 4.9 ± 4.2 %
- Lumbar spine bone mineral density (% change) ([1]; high-risk patients, 100 units once a week, final check): 4.5 ± 4.6 %
- Lumbar spine bone mineral density (% change) ([1]; low-risk patients, 5 units once a week, after 26 W): −0.6 ± 6.4%
- Lumbar spine bone mineral density (% change) ([1]; low-risk patients, 5 units once a week, after 52 W): −0.7 ± 6.2%
- Lumbar spine bone mineral density (% change) ([1]; low-risk patients, 5 units once a week, after 78 W): 1.9 ± 7.5%
- Lumbar spine bone mineral density (% change) ([1]; low-risk patients, 5 units once a week, final check): −0.6 ± 5.7%
- Corrected serum calcium value after administration, maximum [2]: 11.6 mg/dL
- Corrected serum calcium value, range of the average [2]: 9.3 to 9.6 mg/dL
- Corrected serum calcium, Mean [2]: 9.5 mg/dL
- Corrected serum calcium, Median [2]: 9.5 mg/dL
- Manifestation of hypercalcemia or hypercalciuria [2]: No manifestation of hypercalcemia or hypercalciuria was found
- Safety in terms of the serum calcium (corrected serum calcium vs control) [2]: equivalent safety in terms of the serum calcium in all groups
- Percentage change in bone density (%), lumbar spine ([3]; history of Alfacalcidol, 24 W): 3.11%
- Percentage change in bone density (%), neck of femur ([3]; history of Alfacalcidol, 24 W): 1.64%
- Percentage change in bone density (%), proximal femur ([3]; history of Alfacalcidol, 24 W): 2.77%
- Percentage change in bone density (%), lumbar spine ([3]; history of Alfacalcidol, 48 W): 5.47%
- Percentage change in bone density (%), neck of femur ([3]; history of Alfacalcidol, 48 W): 0.85%
- Percentage change in bone density (%), proximal femur ([3]; history of Alfacalcidol, 48 W): 2.31%
- Percentage change in bone density (%), lumbar spine ([3]; history of Alfacalcidol, 72 W): 6.47%
- Percentage change in bone density (%), neck of femur ([3]; history of Alfacalcidol, 72 W): 2.19%
- Percentage change in bone density (%), proximal femur ([3]; history of Alfacalcidol, 72 W): 2.31%
- Percentage change in bone density (%), lumbar spine ([3]; history of calcitriol, 24 W): 3.50%
- Percentage change in bone density (%), neck of femur ([3]; history of calcitriol, 24 W): −0.60%
- Percentage change in bone density (%), proximal femur ([3]; history of calcitriol, 24 W): −1.40%
- Percentage change in bone density (%), lumbar spine ([3]; history of calcitriol, 48 W): 4.40%
- Percentage change in bone density (%), neck of femur ([3]; history of calcitriol, 48 W): −4.03%
- Percentage change in bone density (%), proximal femur ([3]; history of calcitriol, 48 W): −1.05%
- Percentage change in bone density (%), lumbar spine ([3]; history of calcitriol, 72 W): 6.38%
- Percentage change in bone density (%), neck of femur ([3]; history of calcitriol, 72 W): −3.53%
- Percentage change in bone density (%), proximal femur ([3]; history of calcitriol, 72 W): −0.04%
- Percentage change in bone density (%), lumbar spine [3, 4]: 3.78%
- Percentage change in bone density (%), neck of femur [3, 4]: 1.44%
- Percentage change in bone density (%), proximal femur [3, 4]: 1.76%
- Percentage change in bone density (%), lumbar spine [3, 5]: 6.16%
- Percentage change in bone density (%), neck of femur [3, 5]: 1.88%
- Percentage change in bone density (%), proximal femur [3, 5]: 2.28%
- Percentage change in bone density (%), lumbar spine [3, 6]: 5.85%
- Percentage change in bone density (%), neck of femur [3, 6]: 4.17%
- Percentage change in bone density (%), proximal femur [3, 6]: 3.69%
- Percentage change in bone density (%), lumbar spine [3, 7]: 1.96%
- Percentage change in bone density (%), neck of femur [3, 7]: 0.30%
- Percentage change in bone density (%), proximal femur [3, 7]: 1.78%
- Percentage change in bone density (%), lumbar spine [3, 8]: 3.45%
- Percentage change in bone density (%), neck of femur [3, 8]: −4.35%
- Percentage change in bone density (%), proximal femur [3, 8]: −1.68%
- Percentage change in bone density (%), lumbar spine [3, 9]: 4.93%
- Percentage change in bone density (%), neck of femur [3, 9]: −2.53%
- Percentage change in bone density (%), proximal femur [3, 9]: −3.20%
- Percentage change in bone density (%), lumbar spine ([3]; history of elcatonin, 24 W): 3.95%
- Percentage change in bone density (%), neck of femur ([3]; history of elcatonin, 24 W): 1.62%
- Percentage change in bone density (%), proximal femur ([3]; history of elcatonin, 24 W): 3.86%
- Percentage change in bone density (%), lumbar spine ([3]; history of elcatonin, 48 W): 3.59%
- Percentage change in bone density (%), neck of femur ([3]; history of elcatonin, 48 W): 0.72%
- Percentage change in bone density (%), proximal femur ([3]; history of elcatonin, 48 W): 3.44%
- Percentage change in bone density (%), lumbar spine ([3]; history of elcatonin, 72 W): 5.36%
- Percentage change in bone density (%), neck of femur ([3]; history of elcatonin, 72 W): 3.15%
- Percentage change in bone density (%), proximal femur ([3]; history of elcatonin, 72 W): 4.41%
- Percentage change in bone density (%), lumbar spine ([3]; history of menatetrenone, 24 W): 2.70%
- Percentage change in bone density (%), neck of femur ([3]; history of menatetrenone, 24 W): 0.72%
- Percentage change in bone density (%), proximal femur ([3]; history of menatetrenone, 24 W): 0.60%
- Percentage change in bone density (%), lumbar spine ([3]; history of menatetrenone, 48 W): 3.04%
- Percentage change in bone density (%), neck of femur ([3]; history of menatetrenone, 48 W): −3.18%
- Percentage change in bone density (%), proximal femur ([3]; history of menatetrenone, 48 W): −0.56%
- Percentage change in bone density (%), lumbar spine ([3]; history of menatetrenone, 72 W): 4.32%
- Percentage change in bone density (%), neck of femur ([3]; history of menatetrenone, 72 W): −0.78%
- Percentage change in bone density (%), proximal femur ([3]; history of menatetrenone, 72 W): −1.40%
- Percentage change in bone density (%), lumbar spine [3, 10]: 1.77%
- Percentage change in bone density (%), neck of femur [3, 10]: 0.21%
- Percentage change in bone density (%), proximal femur [3, 10]: 2.44%
- Percentage change in bone density (%), lumbar spine [3, 11]: 4.96%
- Percentage change in bone density (%), neck of femur [3, 11]: 1.03%
- Percentage change in bone density (%), proximal femur [3, 11]: 2.26%
- Percentage change in bone density (%), lumbar spine [3, 12]: 4.59%
- Percentage change in bone density (%), neck of femur [3, 12]: −0.51%
- Percentage change in bone density (%), proximal femur [3, 12]: 3.03%
- Change in lumbar vertebral density (%), mean [3, 13]: 3.9%
- Change in lumbar vertebral density (%), median [3, 13]: 3.7%
- Change in lumbar vertebral density (%), mean [3, 14]: 6.0%
- Change in lumbar vertebral density (%), median [3, 14]: 5.7%
- Change in lumbar vertebral density (%), mean ([3]; mild impairment (≧50-<80), after 72 W): 6.3%
- Change in lumbar vertebral density (%), mean [3, 15]: 5.8%
- Change in lumbar vertebral density (%), median [3, 15]: 5.4%
- Change in lumbar vertebral density (%), mean [3, 16]: 3.7%
- Change in lumbar vertebral density (%), median [3, 16]: 3.5%
- Change in lumbar vertebral density (%), mean [3, 17]: 4.9%
- Change in lumbar vertebral density (%), median [3, 17]: 3.8%
- Change in lumbar vertebral density (%), mean [3, 18]: 6.1%
- Change in lumbar vertebral density (%), median [3, 18]: 6.3%
- Change in lumbar vertebral density (%), mean [3, 19]: 5.6%
- Change in lumbar vertebral density (%), median [3, 19]: 4.9%
- Change in lumbar vertebral density (%), mean ([3]; normal (≧80), after 24 W): 4.3%
- Change in lumbar vertebral density (%), median ([3]; normal (≧80), after 24 W): 5.1%
- Change in lumbar vertebral density (%), mean ([3]; normal (≧80), after 48 W): 5.4%
- Change in lumbar vertebral density (%), median ([3]; normal (≧80), after 48 W): 5.6%
- Change in lumbar vertebral density (%), mean ([3]; normal (≧80), after 72 W): 8.1%
- Change in lumbar vertebral density (%), median ([3]; normal (≧80), final): 5.6%
- Change in bone density (%), lumbar spine ([3]; 24 W): 3.50%
- Change in bone density (%), neck of femur ([3]; 24 W): 2.53%
- Change in bone density (%), proximal femur ([3]; 24 W): 2.46%
- Change in bone density (%), lumbar spine ([3]; 48 W): 5.97%
- Change in bone density (%), neck of femur ([3]; 48 W): 2.79%
- Change in bone density (%), proximal femur ([3]; 48 W): 3.39%
- Change in bone density (%), lumbar spine ([3]; 72 W): 6.82%
- Change in bone density (%), neck of femur ([3]; 72 W): 2.44%
- Change in bone density (%), proximal femur ([3]; 72 W): 3.06%
